Laboratory results published in patent US9914914B2, “Polymerase capable of producing non-DNA nucleotide polymers” (Medical Research Council, priority 2012, dated 2018).
[HNA-N] = hexitol nucleic acid (N: the base)

Tests used:
[1] = biological target: T1, CD30 (Homo sapiens, UniProt P28908); experiment: Fluorescence polarisation affinity of txNA aptamers; type: binding
T1 construct: selections were carried out against the extracellular domains of both CD30 and L1-CAM expressed as N-terminal Fc chimeras
T1 sequence (P28908 19-385 limits assumed): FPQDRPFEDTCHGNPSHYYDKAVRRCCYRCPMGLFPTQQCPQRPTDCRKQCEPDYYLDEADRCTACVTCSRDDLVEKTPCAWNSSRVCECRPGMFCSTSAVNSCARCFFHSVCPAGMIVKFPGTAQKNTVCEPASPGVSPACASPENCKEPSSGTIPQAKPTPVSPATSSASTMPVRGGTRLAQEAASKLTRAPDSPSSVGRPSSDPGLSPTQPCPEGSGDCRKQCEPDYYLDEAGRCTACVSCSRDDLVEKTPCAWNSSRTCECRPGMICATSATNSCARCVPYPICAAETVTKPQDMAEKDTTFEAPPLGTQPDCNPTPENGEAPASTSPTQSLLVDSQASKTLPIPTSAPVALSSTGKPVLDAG
Procedure: In this example, selections were carried out against the extracellular domains of both CD30 and L1-CAM expressed as N-terminal Fc chimeras. Briefly, for each round libraries were annealed in 1×HBSSTT (Hanks' Balanced Salt Solution with 5 mM each TRIS pH 7.4 and 8.3 and 0.05% Tween-20) for 5 min 85° C. and cooled to 4° C. at 0.1° C./sec, exposed to either protein AG or streptavidin-coated paramagnetic beads (see below), filtered to remove the beads and then added to recombinant protein in 1×HBSST. These mixtures were incubated at room temperature on a rotator to allow aptamers to bind to the recombinant proteins in solution and binders were recovered via protein AG or streptavidin-coated paramagnetic beds. Rounds 1, 2 and 5 were carried out using native protein and Protein AG Magnetic Beads (Pierce). All other rounds were carried out using protein biotinylated with NHS-LC-LC-biotin (Pierce) and recovered from the binding incubation using NanoLink Streptavidin Magnetic beads (SoluLink). The beads were washed in 1×HBSSTT for 2 h-16 h at room temperature using a Thermo KingFisher and aptamers eluted from the proteins bound to the beads using 30 mM NaOH. Negative selections were carried out against free Fc from round 5 onwards. […]
Aptamers selected against a) CD30 and b) L1-CAM were tested in fluorescence polarisation (FP) and affinities calculated as above (and/or Pinheiro et al (2012)). […]

[2] = test system: sTAR (HIV trans-activating response RNA motif); experiment: HNA aptamer affinity by SPR, BLI and ELONA titration; type: binding; details: read-out: dissociation constant (KD)
Procedure: ELONA (Aptamer-ELISA) was carried out as described (56) with minor modifications. For screening and characterization, ssRNA-HNA chimeras were prepared as described above (13.) (using fitcRNAfd (Table S5)) and binding assayed by immunodetection of the FITC-tag on the bound aptamer. […] Bound antibody was detected using a colorimetric substrate as described above (see PAA, 5) […]
For anti-TAR aptamers, 1000RU sTAR was captured (or, as a reference flow cell, 1000RU scrambledTAR-1) before blocking with excess free biotin. Anti-TAR aptamers were injected for 150 s at a series of concentrations (125 nM, 62.5 nM, 31.3 nM, 15.6 nM, 7.8 nM and 3.9 nM) and dissociation monitored for 600 s, in buffer R (20 mM NaOAc, 140 mM KOAc, 3 mM Mg(OAc)2, 0.1% (v/v) Tween20). […]
To obtain optimal fits, SPR data was fitted to double-exponential model using KaleidaGraph (Synergy Software, Pennsylvania, USA) and Prism (GraphPad Software Inc., California, USA) (57). The rate constants of dissociation were measured by fitting dissociation data at time t (Rdissoc) using a double-exponential function: Rdissoc=Rolexp^−(k^off1^t)+Ro2exp^−(k^off2^t)+RI (1) where koff is the dissociation rate constant, Ro is maximum change in resonance for each phase, RI is the bulk resonance change. […]

Substance | binding to CD30 [1] | Kd [2] [nM]
CD30_13: txNA aptamer selected against CD30, SEQ ID NO:20 (TAGATGTGGTAGAAGTCGTCATTTGGCGAGAAAGCTCAGTCTCAGG; XNA aptamer, chemistry of this clone not given here) | bind CD30 tightly and with good affinity | –
T5-S8-7: anti-TAR HNA aptamer, SEQ ID NO:16 (AGGTAGTGCTGTTCGTTCATCTCAAATCTAGTTCGCTATCCAGTTGGC; all [HNA-N], backbone and methylation of C not given here) | – | 28 to 67
